Consider one compound from PubChem BioAssay (NCI).

A word on the TGI: it is the concentration giving total growth inhibition. Higher therefore signals lower sensitivity of the cells.

Each structure is given as a SMILES string.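 Dose response: 5 concentrations. Exposure: 48 h. Format: 96-well plates. Endpoint: linear interpolation; highest concentration if not reached. TGI denotes the concentration required for complete inhibition of growth.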

For this test, the system named is SN12K1 renal. The experiment in a line: DTP human tumour cell line panel, 48 h.

`CC[C@@]1(O)C(=O)OCc2c1cc1n(c2=O)Cc2cc3c(N)cccc3nc2-1`: the concentration for total growth inhibition (TGI) came out at 1340 nM. This counts as single-digit micromolar.
